Data as given in ChEMBL document CHEMBL3272108, “Analogues of sparteine. 5. Antiarrhythmic activity of selected N,N'-disubstituted bispidines” (J Med Chem, 1977).
Calls of active or inactive are those of the source. The calls are words filed in the database; no cut-off is given here.

Columns and labels:
[1] = test system: Mus musculus; assay: Antiarrhythmic activity in ip dosed CF1 mouse by chloroform-fibrillation assay based ECG analysis; format: functional; settings: CF1, Heart
[2] = Acute toxicity in ip dosed CF1 mouse; settings: in vivo
[3] = Therapeutic index, ratio of LD50 for CF1 mouse to ED50 for antiarrhythmic activity in CF1 mouse; settings: in vivo
[4] = Octanol-phosphate buffer apparent partition coefficient, log D of the compound at pH 7.4 by GLC analysis; format: physicochemical
[5] = Binding affinity to calcium nitrate in anhydrous dimethyl-d6-sulfoxide solvent by proton magnetic resonance analysis
[6] = Binding affinity to magnesium nitrate in anhydrous dimethyl-d6-sulfoxide solvent by proton magnetic resonance analysis
[7] = Binding affinity to calcium salt in methanol-d4 solvent by proton magnetic resonance analysis
[8] = Binding affinity to magnesium salt in methanol-d4 solvent by proton magnetic resonance analysis

Compound	ED50 [1] [µmol/kg]	LD50 [2] [µmol/kg]	selectivity ratio [3]	logD [4]	Activity [5]	Activity [6]	Activity [7]	Activity [8]
Cl.c1ccc(CN2CC3CC(C2)CN(Cc2ccccc2)C3)cc1	160	199	1.24	-0.43	inactive	inactive	–	–
Br.CCCCN1CC2CC(CN(C)C2)C1	192	207	1.08	-3.39	–	–	–	–
CN1CC2CC(C1)CN(C(c1ccccc1)c1ccccc1)C2.Cl	259	225	0.87	-0.43	–	–	–	–
CCCCN1CC2CC(C1)CN(Cc1ccccc1)C2.Cl	159	198	1.25	-1.22	inactive	inactive	–	–
CN1CC2CC(C1)CN(Cc1ccccc1)C2.CS(=O)(=O)O	154	189	1.23	-2.57	–	–	Active	Active
CC(C)N(CCC(C(N)=O)(c1ccccc1)c1ccccn1)C(C)C (stereo not given) [DISOPYRAMIDE]	60	504	8.4	–	–	–	–	–
CCCCN1CC2CC(C1)CN(CCCC)C2.Cl	170	196	1.23	-2.07	–	–	–	–
CC(C)C1C2CC(CN(C)C2)CN1C.Cl (stereo not given)	191	279	1.46	-3.4	–	–	–	–
C1CCN2C[C@@H]3C[C@@H](CN4CCCC[C@@H]34)[C@H]2C1.O.O.O.O.O.O=S(=O)(O)O [SPARTEINE SULFATE]	150	134	0.89	-1.57	inactive	inactive	Active	Active
